The structures appear in SMILES notation.

Data set [1] deals with Staphylococcus epidermidis. Put plainly: Permeability of unlabeled compound across Staphylococcus epidermidis RP62A biofilms assessed as diffusion coefficient at 23 degC by time lapse confocal scanning microscop. In kind it is ADME, organism-based. The following applies: in vivo.
Data set [2] can be described thus: Aqueous diffusion coefficient of rhodamine-tagged compound at 23 degC by time lapse confocal scanning microscopy. The following applies: buffer. The format is physicochemical.
In data set [3] the test system is Staphylococcus epidermidis. Put plainly: Permeability of Bodipy-tagged compound across Staphylococcus epidermidis RP62A biofilms with 223 micrometer radial dimensions and 153 micrometer orthogonal dimensions assessed as time required for fluorescence intensity in centre of biofilm cluster to reach 50% of steady state maximum bulk fluid fluorescence intensity. In kind it is ADME, organism-based. The following applies: in vivo.

For data set [4], the system named is Staphylococcus epidermidis. The data set can be described thus: Permeability of Bodipy-tagged compound across Staphylococcus epidermidis RP62A biofilms assessed as diffusion coefficient at 23 degC by time lapse confocal scanning microscopy. The format is ADME, organism-based. Particulars: in vivo.
For data set [5], the system named is Staphylococcus epidermidis. The data set can be described thus: Permeability of rhodamine-tagged compound across Staphylococcus epidermidis RP62A biofilms with 207 micrometer radial dimensions and 97 micrometer orthogonal dimensions assessed as time required for fluorescence intensity in centre of biofilm cluster to reach 50% of steady state maximum bulk fluid fluorescence intensity. The format is ADME, organism-based. Particulars: in vivo.

In data set [6] the test system is Staphylococcus epidermidis. The data set can be described thus: Permeability of Bodipy-tagged compound across Staphylococcus epidermidis RP62A biofilms with 278 micrometer radial dimensions and 168 micrometer orthogonal dimensions assessed as time required for fluorescence intensity in centre of biofilm cluster to reach 50% of steady state maximum bulk fluid fluorescence intensity. In kind it is ADME, organism-based. The following applies: in vivo.

Data set [7] deals with Staphylococcus epidermidis. Put plainly: Permeability of rhodamine-tagged compound across Staphylococcus epidermidis RP62A biofilms assessed as diffusion coefficient at 23 degC by time lapse confocal scanning microscopy. The format is ADME, organism-based. The following applies: in vivo.
Data set [8] deals with Staphylococcus epidermidis. Put plainly: Permeability of rhodamine-tagged compound across Staphylococcus epidermidis RP62A biofilms with 94 micrometer radial dimensions and 63 micrometer orthogonal dimensions assessed as time required for fluorescence intensity in centre of biofilm cluster to reach 50% of steady state maximum bulk fluid fluorescence intensity. The format is ADME, organism-based. The following applies: in vivo.

For data set [9], the system named is Staphylococcus epidermidis. Put plainly: Permeability of Bodipy-tagged compound across Staphylococcus epidermidis RP62A biofilms with 181 micrometer radial dimensions and 103 micrometer orthogonal dimensions assessed as time required for fluorescence intensity in centre of biofilm cluster to reach 50% of steady state maximum bulk fluid fluorescence intensity. In kind it is ADME, organism-based. Particulars: in vivo.

For data set [10], the system named is Staphylococcus epidermidis. The data set can be described thus: Permeability of rhodamine-tagged compound across Staphylococcus epidermidis RP62A biofilms with 217 micrometer radial dimensions and 115 micrometer orthogonal dimensions assessed as time required for fluorescence intensity in centre of biofilm cluster to reach 50% of steady state maximum bulk fluid fluorescence intensity. In kind it is ADME, organism-based. Particulars: in vivo.

Data set [11] in a line: Aqueous diffusion coefficient of Bodipy-tagged compound at 23 degC by time lapse confocal scanning microscopy. The following applies: buffer. In kind it is physicochemical.

`CCCCCCCCCC(=O)N[C@@H](Cc1c[nH]c2ccccc12)C(=O)N[C@H](CC(N)=O)C(=O)N[C@@H](CC(=O)O)C(=O)N[C@@H]1C(=O)NCC(=O)N[C@@H](CCCN)C(=O)N[C@@H](CC(=O)O)C(=O)N[C@H](C)C(=O)N[C@@H](CC(=O)O)C(=O)NCC(=O)N[C@H](CO)C(=O)N[C@@H]([C@H](C)CC(=O)O)C(=O)N[C@@H](CC(=O)c2ccccc2N)C(=O)O[C@@H]1C`: the D in data set [1] is reported as 0.78 ×10⁻⁶ cm2/s; in [2], 1.78 ×10⁻⁶ cm2/s; in data set [4] it was 5.2 ×10⁻⁷ cm2/sec; in data set [7], 4.7 ×10⁻⁷ cm2/sec; in data set [11], 1.73 ×10⁻⁶ cm2/s. The Time in data set [3] came out at 60 s; in data set [5] it was 40 s; in [6] it was 210 s; in data set [8], 26 s; in [9] it was 67 s; in [10], 140 s.
